Measured values from patent publication EP3386957B1, “PROCESS FOR THE PURIFICATION OF 10-DEACETYL BACCATIN III” (RotaChrom Technológiai és Szolgálató Zártkörüen Müködö …, priority 2015, dated 2017).
Values after ≈ are worked out from the molar mass of the structure shown. Where two headings read alike, the source gives them in different places.

Assays:
Format in all cases: physicochemical
[1] = Selectivity of CPC solvent systems for contaminants of 10-DAB III (contaminants identified by HPLC relative retention time)
Method: The HPLC methods used for the analysis: • 1. Isocratic method • Column: Dr Maisch ReproSil-Pur C18-AQ (150x4.0 mm, 3 um) • Column thermostat: 35 °C • Flow rate: 0.75 ml/min • Eluent: 28% acetonitrile, 72% water, 0.1% acetic acid • Detection wavelength: 230 +/- 5 nm • Injected volume: 10 ul • 2. Gradient method • Colum: Phenomenex Kinetex C18 (100x3.0 mm, 2.6 um) • Column thermostat: 35 °C • Flow rate: 0.7 ml/min • Eluent A: water + 0.1% acetic acid Eluent B: acetonitrile Gradient program: 0 min 20% B, 5 min: 30% B, 11 min 40% B, 13 min 40% B, 14 min 20% B, 18 min 20% B • Detection wavelength: 230 +/- 5 nm • Injected volume: 5 ul
Table 3: the selectivity matrix of the individual methods according to the invention

[2] = Partition coefficient in biphasic CPC solvent systems
Description: (§1) As such a degree of solubility may only be achieved in a mixture of MIBK, acetone and water after heating, after cooling and shaking the substance crystalized (Margraff, 1995). The partition coefficient of 10-DAB III is around 6. […] The chromatogram according to Figure 3 presents a product purified in such a solvent system.
(§2) It was also surprising to experience that the biphasic system formed by the mixture of methyl tert-butyl ether (hereinafter: MTBE), acetone and water is also suitable for dissolving 10-DAB III, if their volumetric mixing ratio is approximately 4:4:3, in which the upper phase is a mixture of 40% MTBE, 50% acetone and 10% water, and the lower phase is a mixture of 40% water, 50% acetone and 10% MTBE. 10-DAB III is insoluble separately in MTBE and in water, but it dissolves in both phases of the aforementioned ternary solvent mixture, solubility in the upper phase is 50 mg/ml. […] Such contaminants on the basis of the HPLC method below are the RRT=0.68 and the RRT=0.87 contaminants.
Liquid chromatography or extraction performed with a chlorinated hydrocarbon is usually used for the separation of chlorophyll and related compounds. […] A solvent system that may be used for this may be the dichloromethane, methanol and water mixture at an approximate volumetric ratio of 3:4:3. In this solvent system the partition coefficient of 10-DAB III is 0.95, while that of the aforementioned problematic contaminants is around 0.4-0.5.

[3] = Solubility of 10-DAB III in solvents and biphasic solvent systems
Description: as §1, §2

SMILES | selectivity ([1]; CPC solvent mixture DCM/MeOH/water, Table 3) | selectivity ([1]; CPC solvent mixture MEK/water, isocratic HPLC method) | selectivity ([1]; CPC solvent mixture MEK/water, Table 3) | selectivity ([1]; CPC solvent mixture MTBE/acetone/water, isocratic HPLC method) | selectivity ([1]; prior-art system: mixture of methyl isobutyl ketone, acetone and water) | partition coefficient ([2]; MEK/water biphasic system) | partition coefficient ([2]; MTBE/acetone/water approximately 4:4:3) | partition coefficient ([2]; dichloromethane, methanol and water approximately 3:4:3) | solubility ([3]; organic solvent or mixture, MTBE/acetone/water approximately 4:4:3, upper phase (40% MTBE, 50% acetone, 10% water), read-out: solubility in the upper phase) [mg/mL] | solubility ([3]; separately in MEK or water) | solubility ([3]; separately in MTBE and in water) | solubility ([3]; upper phase of MEK/water biphasic system, organic solvent or mixture, MEK/water biphasic system, upper phase (MEK saturated with water), read-out: solubility in the upper phase) [mg/mL]
CC(=O)O[C@@]12CO[C@@H]1C[C@H](O)[C@@]1(CO)C(=O)[C@H](O)C3=C(C)[C@@H](O)C[C@@](O)([C@@H](OC(=O)c4ccccc4)[C@H]21)C3(C)C [RRT=0.48, 19-OH-10-deacetylbaccatin III] | + | great selectivity | +++ (high selectivity) | great selectivity | excellent selectivity | – | – | – | – | – | – | –
CC(=O)O[C@@]12CO[C@@H]1C[C@H](O)[C@@]1(C)C(=O)[C@H](O)C3=C(C)[C@@H](O)C[C@@](O)([C@@H](OC(=O)c4ccccc4)[C@H]21)C3(C)C [10-DAB III, 10-deacetylbaccatin III] | – | – | – | – | – | around 6 | around 2 | 0.95 | 50 (≈ 91.8 mM) | does not dissolve well | insoluble | 80 (≈ 147 mM)
